pKi: −log10 of the molar value.
Legend:
Adenosine A2 receptor [1] = biological target: Adenosine A2 receptor (Homo sapiens, UniProt P29275+P29274)
Description: Inhibition of the stimulation by 5'-(N-ethylcarbamoyl) adenosine of adenyl cyclase via adenosine A2 receptor in human platelet membranes.

Adenosine receptor A1 [2] = biological target: T1, Adenosine receptor A1 (Rattus norvegicus, UniProt P25099); assay: Inhibition of 1 nM [3H]- N6 -(phenylisopropyl) adenosine binding to Adenosine A1 receptor in rat fat cell membrane; assay type: cell-based
T1 sequence (P25099 whole entry): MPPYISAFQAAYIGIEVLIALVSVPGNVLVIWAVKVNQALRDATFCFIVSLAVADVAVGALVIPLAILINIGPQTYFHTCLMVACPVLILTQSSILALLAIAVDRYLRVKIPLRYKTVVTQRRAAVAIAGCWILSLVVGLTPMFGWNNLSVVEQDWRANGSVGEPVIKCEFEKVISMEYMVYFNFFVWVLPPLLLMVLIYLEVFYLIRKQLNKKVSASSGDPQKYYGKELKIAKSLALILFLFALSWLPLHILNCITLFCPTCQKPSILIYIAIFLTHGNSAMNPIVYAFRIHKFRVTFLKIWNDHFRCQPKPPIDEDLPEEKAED

Adenosine receptor A1 [3] = biological target: T1, Adenosine receptor A1; assay: Inhibition of 1 nM [3H]- N6-(phenylisopropyl) adenosine binding to Adenosine A1 receptor in rat cerebral cortical membranes; assay type: cell membranes, Membrane
Adenosine A2 receptor [4] = biological target: Adenosine A2 receptor (Rattus norvegicus, UniProt P29276+P30543); settings: pc-12
Description: Inhibition of the stimulation by 5'-(N-ethylcarbamoyl) adenosine of adenyl cyclase via Adenosine A2 receptor in rat PC12 membranes

Adenosine receptor A1 [5] = biological target: T1, Adenosine receptor A1; assay: Inhibition of […] nM [3H]- N6- (phenylisopropyl) adenosine binding to Adenosine A1 receptor in rat cerebral cortical membranes; I = Inactive; assay type: cell membranes, Membrane
Adenosine receptor A1 [6] = biological target: T1, Adenosine receptor A1; assay: Inhibition of N6-(phenylisopropyl)adenosine-elicited inhibition of adenylate cyclase at Adenosine A1 receptor in rat fat cell membrane; I =inactive
Adenosine receptor A1 [7] = biological target: T1, Adenosine receptor A1; assay: Inhibition of […] nM [3H]- N6- (phenylisopropyl) adenosine binding to A1 adenosine receptor in rat cerebral cortical membranes; assay type: cell membranes, Membrane
Adenosine receptor A1 [8] = biological target: T1, Adenosine receptor A1; assay: Inhibition of N6-(phenylisopropyl)adenosine-elicited inhibition of adenylate cyclase at A1 adenosine receptor in rat fat cell membrane
Adenosine receptor A1 [9] = biological target: T1, Adenosine receptor A1; assay: Inhibition of […] nM [3H]- N6- (phenylisopropyl) adenosine binding to Adenosine A1 receptor

Compound	Ki (Adenosine A2 receptor [1]) [nM]	pKi (Adenosine receptor A1 [2])	pKi (Adenosine receptor A1 [3])	Ki (Adenosine A2 receptor [4]) [nM]	also measured
CCCn1c(=O)c2nc[nH]c2n(CCC)c1=O		5.80	6.15		
CC(C)CCn1c(=O)c2nc(-c3ccccc3)[nH]c2n(CC(C)C)c1=O	2300				
CC(C)CCn1c(=O)c2nc[nH]c2n(CC(C)C)c1=O	6500		5.80		
CCCn1c(=O)[nH]c(=O)c2[nH]c(-c3ccccc3)nc21	11000		5.01		
Cn1c(=O)c2c(nc(-c3ccccc3)n2C)n(C)c1=O	14000		4.82		
CCCn1c(=O)[nH]c(=O)c2[nH]c(C3CCCCC3)nc21	1100		6.07		
CCCn1c(=O)c2c(nc(C3CCCCC3)n2C)n(CCC)c1=O	85	5.38		1000	
CCCn1c(=O)c2c(nc(C3CCCC3)n2C)n(CCC)c1=O	220				
CCCn1c(=O)[nH]c2[nH]c(-c3ccccc3)nc2c1=O	20	7.44	7.17	73	
CC(C)CCn1c(=O)c2nc(-c3ccc(S(=O)(=O)O)cc3)[nH]c2n(CC(C)C)c1=O	520		5.92		
CCCn1c(=O)[nH]c(=O)c2[nH]c(-c3ccc(S(=O)(=O)O)cc3)nc21	2700	4.48	4.24	17000	
Cn1c(=O)c2c(nc(C3CCCCC3)n2C)n(C)c1=O	190				
Cn1c(=O)c2nc(C3CCCCC3)[nH]c2n(C)c1=O	150	7.39	6.96	450	
Cn1c(=O)c2c(nc(C3CCCC3)n2C)n(C)c1=O	2400	4.83	4.48	3800	
Cn1c(=O)c2nc(-c3ccc(S(=O)(=O)O)cc3)[nH]c2n(C)c1=O	5500			5000	
Cn1c(=O)[nH]c2[nH]c(-c3ccccc3)nc2c1=O	860			250	pKi (Adenosine receptor A1 [7]): 6.52; pKi (Adenosine receptor A1 [8]): 6.89
Cn1c(=O)[nH]c2[nH]cnc2c1=O [1-METHYLXANTHINE]	1900				pKi (Adenosine receptor A1 [9]): 4.77
Cn1c(=O)[nH]c(=O)c2[nH]cnc21 [3-METHYLXANTHINE]	240000		4.46		
Cn1c(=O)c2nc(-c3ccccc3)[nH]c2n(C)c1=O [8-PHENYL THEOPHYLLINE]	1900			1600	

Now from value to molecule, other results behind:

Ki (Adenosine A2 receptor [1]) [nM]	pKi (Adenosine receptor A1 [2])	pKi (Adenosine receptor A1 [3])	Ki (Adenosine A2 receptor [4]) [nM]	Compound	also measured
1500				Cn1c(=O)c2nc(-c3ccc(C(=O)O)cc3)[nH]c2n(C)c1=O	
	8.23			CCCn1c(=O)c2[nH]c(-c3ccccc3)nc2n(CCC)c1=O	
2100	5.31	4.82	5600	CCCn1c(=O)c2c(nc(-c3ccc(S(=O)(=O)O)cc3)n2C)n(CCC)c1=O	
150000		4.21		Cn1c(=O)c2c(nc(-c3ccc(C(=O)O)cc3)n2C)n(C)c1=O	
57000			150000	Cn1c(=O)c2c(nc(-c3ccc(S(=O)(=O)O)cc3)n2C)n(C)c1=O	Ki (Adenosine receptor A1 [5]): Not Active; Ki (Adenosine receptor A1 [6]): Not Active
25000		4.37		COC(=O)c1ccc(-c2nc3c(c(=O)n(C)c(=O)n3C)n2C)cc1	
26000		5.51		CCCn1c(=O)c2c(nc(-c3ccc(C(=O)OC)cc3)n2C)n(CCC)c1=O	
2400		5.64		CCCn1c(=O)c2c(nc(-c3ccccc3)n2C)n(CCC)c1=O	
13000		5.32		CCCn1c(=O)c2c(nc(-c3ccc(C(=O)O)cc3)n2C)n(CCC)c1=O	
2800	4.92	5.47	5300	CCCn1c(=O)c2c(ncn2C)n(CCC)c1=O	
14000		4.24		CCCn1c(=O)[nH]c(=O)c2[nH]c(-c3ccc(C(=O)O)cc3)nc21	
1900	6.37	6.85	11000	CCCn1c(=O)c2nc(-c3ccc(S(=O)(=O)O)cc3)[nH]c2n(CCC)c1=O	
		6.70		CCCn1c(=O)c2nc(-c3ccc(C(=O)O)cc3)[nH]c2n(CCC)c1=O	

From ChEMBL document CHEMBL1124484, “Effects of 8-phenyl and 8-cycloalkyl substituents on the activity of mono-, di-, and trisubstituted alkylxanthines with substitution at the 1-, 3-, and 7-positions” (J Med Chem, 1989)
